Assay results as given in patent US7763580B2, “Methods for treating conditions associated with the accumulation of excess extracellular matrix” (University of Utah Research Foundation, priority 1999, dated 2010).

Key:
[1] = test system: adult human mesangial cells; experiment: Renin-induced TGFβ and fibronectin production by adult human mesangial cells (ELISA); assay type: cell-based; conditions: 10^−5 M inhibitor added at zero time with 10^−7 M human recombinant renin, adult cells, FIG. 7
Procedure: Primary cultures of adult human mesangial cells were grown from human nephrectomy tissues using standard methods. Cells were passaged 4-7 times and then plated (3,000 cell/cm^2) in 12 well plates in 2 ml of medium (Mesangial Basal Medium (Clonetics Corp.) containing 5% FCS, 10 μg/ml penicillin and 100 μg/ml streptomycin) and allowed to grow to 70% confluency for 48 hours at 37EC, 5% CO2. Cultures were washed three times using sterile phosphate buffered saline at room temperature and then 2 ml/well of serum free MBM medium to induce quiescence. After 48 hours, the serum-free medium was removed and 2 ml/well of fresh serum-free medium was added for 24 hours. Human recombinant renin (HrRenin, Hoffman-La Roche Ltd., Basel, Switzerland) in concentrations from 10^−6 to 10^−12 M was added to each well for 24 hours. A blank (no HrRenin) was used as a control. Cells and supernatants were harvested by centrifugation after 24 hrs of culture and frozen at ^−70EC until analysis.
The total production and release of TGFβ into the culture supernatant was measured using an ELISA kit (R & D Systems). Induction of the matrix protein fibronectin (Fn) in the supernatant was measured using anti-fibronectin antibodies in an ELISA to provide further confirmation of induction of TGFβ. Renin-induced induction of TGFβ, fibronectin and PAI-1 mRNA were measured over time using semi-quantitative RT-PCR in a multiplex system where multiple cDNAs are amplified simultaneously according to Dostal et al., Anal. Biochem. 223:239-250 (1994), incorporated by reference herein Determinations were done in triplicate mesangial cell cultures.
Renin inhibitor Ro42-5892 (Hoffman-LaRoche, Basel, Switzerland), Losartan™ (Merck Pharmaceuticals, West Point, Pa.), Enalapril™ (Sigma Chemical Co., St. Louis, Mo., Prod. No. E6888), or TGFβ1 neutralizing antibody (R & D Systems) were added in the amounts indicated below to separate wells in triplicate to block the renin cascade at different sites after stimulation by renin: • 10^−5 M Renin Inhibitor R042-5892 (Hoffman-LaRoche) • 10^−5 M Enalapril™ (Sigma Chemical Co., St. Louis, Mo.) • 10^−5 M Losartan™ (Merck Pharmaceuticals, West Point, Pa.) • Controls included neutralizing antibody to TGFβ (ATG) and control IgG (TgG)
These inhibitors were added at zero time with 10^−7 M human recombinant renin (Hoffman-LaRoche).

[2] = test system: anti-Thy 1 glomerulonephritis; experiment: Immunofluorescent staining of glomerular fibronectin EDA+ and collagen I; assay type: in vivo, Sprague Dawley rats; conditions: enalapril alone
Procedure: These experiments were performed on male Sprague Dawley rats (200-250 g) obtained from the Sasco colony of Charles River Laboratories (Wilmington, Mass., USA). Animal housing and care were in accordance with the NIH Guide for the Care and Use of Laboratory Animals, NIH Publication No. 85-23, 1985. Animals were fed a normal protein diet (22% protein, Teklad No. 86 550, Teklad Premier Laboratory Diets, Madison, Wis., USA). Glomerulonephritis was induced by tail vein injection of 2.25 mg/Kg of the monoclonal anti-Thy 1.1 antibody OX-7 (NCCC, Biovest International Inc, Minneapolis, Minn., USA). OX-7 binds to a Thy 1-like epitope on the surface of mesangial cells causing complement-dependent cell lysis followed by fibrotic tissue repair (Bagchus et al., Lab Invest. 55:680-687 (1986)). Control animals were injected with similar volumes of phosphate-buffered saline (PBS). […] The intensity of glomerular staining of collagen I and fibronectin was evaluated according to a 0 to 4 scale, which has been described in detail previously (Yamamoto et al., Kidney Int. 49:461-469 (1996)). The number of cells per glomerulus, staining positive for the monocyte/macrophage marker ED1, were counted. Thirty glomeruli per sample were evaluated. The mean values with standard error values were calculated. […] The percent reduction in disease severity in a treated group was calculated as: […]

`CCOC(=O)[C@H](CCc1ccccc1)N[C@@H](C)C(=O)N1CCC[C@H]1C(=O)O` [enalapril] was tested, and the “renin-induced increase in TGFβ production” value [1] was “does not reduce the renin-induced increase in TGFβ production”, the “reduction of collagen I immunostaining” value [2] was 33% and the “reduction of fibronectin immunostaining” value [2] was 36%.
